Data: article PMC10644342, “Improved Antibacterial Activity of 1,3,4-Oxadiazole-Based Compounds That Restrict Staphylococcus aureus Growth Independent of LtaS Function” (ACS Infectious Diseases, 2023)
Values after ≈ are worked out from the molar mass of the structure shown.

Tests used:
[1] = system: S. aureus wild type, clpX, ltaS, tarO mutants and ltaS overexpression strains; test: MIC against LtaS deletion and overexpression strains; format: cell-based, Staphylococcus aureus; conditions: Staphylococcus aureus, NEWMAN
Method: S. aureus, S. epidermidis, E. faecalis, and E. faecium strains were routinely cultivated on tryptic soy agar (TSA) and grown for 18 h at 37 °C. S. aureus single colonies were subsequently transferred into 2 mL of tryptic soy broth (TSB) and grown for a further 18 h at 37 °C while being shaken at 180 rpm. S. pyogenes, S. agalactiae, and S. dysgalactiae strains were routinely cultured on TSA supplemented with 5% sheep blood and grown for 18 h at 37 °C with 5% CO2. E. coli was grown in LB broth at 37 °C. For LtaS-deficient strains, TSB was supplemented with 0.5 M NaCl to provide an osmotically balanced environment and instead grown at 30 °C. For strains harboring the pRMC2 tetracycline inducible vector,[61] the growth medium was supplemented with 10 μg/mL chloramphenicol and […] anhydrotetracycline hydrochloride (Sigma). Phenylalanine-arginine β-naphthylamide (PAβN) (Sigma) was dissolved in sterile water.
B. subtilis, staphylococcal, and enterococcal strains were grown in Mueller Hinton broth (MHB), while streptococcal strains were grown in MHB supplemented with 5% laked horse blood. All strains were grown for 18 h at 37 °C. The overnight cultures were subsequently subcultured 1:200 and grown to the exponential phase (OD600nm = 0.5–0.6) in fresh broth. 1771 and its derivatives 9–14 were reconstituted in DMSO and further diluted by performing a 1:2 serial dilution ranging between 256 and 0.125 μg/mL in a 96-well microtiter plate. One hundred microliters of 0.5 McFarland standardized inoculum (approximately equal to 5 × 10^5 cfu) were then dispensed into each well in the 96-well microtiter plate. The plate was incubated for 18 h at 37 °C.
For overexpression studies, full-length ltaS was amplified by PCR using MRSA strian LAC genomic DNA, primer pair LtaS-FW: 5′-[…]-3′ and LtaS-RV: 5′-[…]-3′, and Phusion High-Fidelity DNA Polymerase (Thermo Fisher). The resulting PCR product was cloned into the tetracycline inducible plasmid pRMC2 using SacI and KpnI restriction sites and T4 ligase (NEB). The cloned vector was subsequently transformed into RN4220 followed by LAC through electroporation.

[2] = system: LtaS; parameters: method as in PMID 29300473; conditions: LtaS in artificial liposomes; cited from earlier work
[3] = system: HL-60 cell line; conditions: cited from earlier work
[4] = system: S. aureus; parameters: method as in PMID 23401520; conditions: cited from earlier work

Nc1c(/N=N/c2ccc(-c3ccc(/N=N/c4cc(S(=O)(=O)O)c5ccccc5c4N)cc3)cc2)cc(S(=O)(=O)O)c2ccccc12 [Congo red]
MIC [1]: > 512 µg/mL | MIC ([1]; Newman ΔtarO): 64 µg/mL (≈ 98.1 µM) | MIC ([1]; Newman ΔtarO pRMC2 (empty vector)): 64 µg/mL (≈ 98.1 µM) | MIC ([1]; Newman ΔtarO pltaS (ltaS overexpression)): 256 µg/mL (≈ 392 µM) | inhibition of LtaS polymerization activity [2]: blocked LtaS function

[H]/N=C(/N)N[C@H]1[C@H](O)[C@@H](O)[C@H](O[C@@H]2O[C@@H](C)[C@](O)(C=O)[C@H]2O[C@@H]2O[C@@H](CO)[C@H](O)[C@@H](O)[C@@H]2NC)[C@@H](N/C(N)=N\[H])[C@@H]1O [streptomycin]
Cell health index (CHI) [3]: 0.19 | frequency of mutant selection [4]: < 10^–7
